In PubChem BioAssay AID330 (DTP/NCI, 2004):
“And” between values parts separate entries of the source, which are not always exact repeats. Equal entries are not always repeated. Inconclusive results and toxic doses are left out.

Test system: P388 leukemia ip, CD2F1 mice, survival T/C
Assay: NCI In Vivo Anticancer Drug Screen. Data for tumor model P388 Leukemia (intraperitoneal) in CD2F1 (CDF1) mice
Conditions: endpoint: median survival time, higher = longer survival
In short: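 Mice carrying the transplanted tumor received test compound or vehicle. Survival was recorded in each group, and the value is the treated-group measurement divided by that of the vehicle-treated control group.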

[1] = dose: 50.0 mg/kg/injection, schedule: Q01DX005 (ip), vehicle: Klucel (hydroxypropylcellulose) (HPC)
[2] = dose: 50.0 mg/kg/injection, schedule: Q01DX005 (ip), vehicle: saline with Tween-80
[3] = dose: 100.0 mg/kg/injection, schedule: Q01DX005 (ip), vehicle: Klucel (hydroxypropylcellulose) (HPC)
[4] = dose: 100.0 mg/kg/injection, schedule: Q01DX005 (ip), vehicle: saline with Tween-80
[5] = dose: 200.0 mg/kg/injection, schedule: Q01DX005 (ip), vehicle: Klucel (hydroxypropylcellulose) (HPC)
[6] = dose: 200.0 mg/kg/injection, schedule: Q01DX005 (ip), vehicle: saline with Tween-80
[7] = dose: 6.25 mg/kg/injection, schedule: Q01DX009 (ip), vehicle: saline with Tween-80
[8] = dose: 12.5 mg/kg/injection, schedule: Q01DX009 (ip), vehicle: saline with Tween-80
[9] = dose: 25.0 mg/kg/injection, schedule: Q01DX009 (ip), vehicle: saline with Tween-80
[10] = dose: 50.0 mg/kg/injection, schedule: Q01DX009 (ip), vehicle: saline with Tween-80
[11] = dose: 100.0 mg/kg/injection, schedule: Q01DX001 (ip), vehicle: saline
[12] = dose: 200.0 mg/kg/injection, schedule: Q01DX001 (ip), vehicle: saline
[13] = dose: 50.0 mg/kg/injection, schedule: Q01DX009 (ip), vehicle: Klucel (hydroxypropylcellulose) (HPC)
[14] = dose: 100.0 mg/kg/injection, schedule: Q01DX009 (ip), vehicle: Klucel (hydroxypropylcellulose) (HPC)
[15] = dose: 200.0 mg/kg/injection, schedule: Q01DX009 (ip), vehicle: Klucel (hydroxypropylcellulose) (HPC)

CN1C(=O)/C(=c2\sc3nc4ccccc4n3c2=O)c2cc(Br)ccc21
T/C (dose: 100.0 mg/kg/injection, schedule: Q01DX001 (ip), vehicle: Klucel (hydroxypropylcellulose) (HPC)): 99 % of control | T/C (dose: 200.0 mg/kg/injection, schedule: Q01DX001 (ip), vehicle: Klucel (hydroxypropylcellulose) (HPC)): 99 % of control | T/C (dose: 400.0 mg/kg/injection, schedule: Q01DX001 (ip), vehicle: Klucel (hydroxypropylcellulose) (HPC)): 101 % of control

COc1cc2c(cc1OC)C(C)N1CCc3cc(OC)c(OC)cc3C1C2 (configuration not stated)
T/C (dose: 1.56 mg/kg/injection, schedule: Q01DX009 (ip), vehicle: Klucel (hydroxypropylcellulose) (HPC)): 103 % of control | T/C (dose: 3.12 mg/kg/injection, schedule: Q01DX009 (ip), vehicle: Klucel (hydroxypropylcellulose) (HPC)): 98 % of control

CC(OCc1ccccc1)C(NC(=O)OC(C)(C)C)C(=O)O (configuration not stated)
T/C [1]: 113 % of control | T/C [2]: 103 % of control | T/C [3]: 94 % of control | T/C [4]: 100 % of control | T/C [5]: 96 % of control | T/C [6]: 98 % of control

COc1cc(/C=N/OC(=O)Nc2ccccc2)cc(OC)c1OC
T/C [7]: 96 % of control | T/C [8]: 91 % of control | T/C [9]: 91 % of control

c1ccc(N=P(c2ccccc2)(c2ccccc2)c2ccccc2)cc1
T/C [9]: 96 % of control | T/C [10]: 108 % of control | T/C (dose: 100.0 mg/kg/injection, schedule: Q01DX009 (ip), vehicle: saline with Tween-80): 108 % of control

CCCCOC(=O)N[C@H]1CCc2cc(OC)c(OC)c(OC)c2-c2ccc(SC)c(=O)cc21
T/C (dose: 0.38 mg/kg/injection, schedule: Q01DX009 (ip), vehicle: Klucel (hydroxypropylcellulose) (HPC)): 112 % of control | T/C (dose: 0.75 mg/kg/injection, schedule: Q01DX009 (ip), vehicle: Klucel (hydroxypropylcellulose) (HPC)): 122 % of control and 123 % of control | T/C (dose: 1.5 mg/kg/injection, schedule: Q01DX009 (ip), vehicle: Klucel (hydroxypropylcellulose) (HPC)): 114 % of control | T/C (dose: 12.0 mg/kg/injection, schedule: Q01DX009 (ip), vehicle: Klucel (hydroxypropylcellulose) (HPC)): 94 % of control

CN(C)C(=O)Cn1cc([N+](=O)[O-])sc1=NC(=O)c1ccncc1
T/C [11]: 93 % of control | T/C [12]: 109 % of control | T/C (dose: 400.0 mg/kg/injection, schedule: Q01DX001 (ip), vehicle: saline): 105 % of control

Cc1c2cccc1CSCc1cccc(c1C)CSC2
T/C (dose: 50.0 mg/kg/injection, schedule: Q01DX009 (ip), vehicle: suspension in saline): 99 % of control | T/C (dose: 100.0 mg/kg/injection, schedule: Q01DX009 (ip), vehicle: suspension in saline): 92 % of control | T/C (dose: 200.0 mg/kg/injection, schedule: Q01DX009 (ip), vehicle: suspension in saline): 100 % of control

O=C(/N=C1\N=Nc2c(O)c(C3(c4nc5n(c4O)/C(=N/C(=O)Nc4ccc(Cl)cc4)N=N5)Cc4ccccc4C3=O)nn21)Nc1ccc(Cl)cc1 (configuration not stated)
T/C (dose: 60.0 mg/kg/injection, schedule: Q01DX005 (ip), vehicle: saline with Tween-80): 101 % of control | T/C (dose: 120.0 mg/kg/injection, schedule: Q01DX005 (ip), vehicle: saline with Tween-80): 94 % of control | T/C (dose: 240.0 mg/kg/injection, schedule: Q01DX005 (ip), vehicle: saline with Tween-80): 94 % of control

CCc1nc(N)nc(N)c1-c1ccc2c(c1)nnn2CCc1ccccc1
T/C [1]: 99 % of control | T/C [3]: 96 % of control

CCCCCCCCCCCC(=O)NO
T/C (dose: 3.13 mg/kg/injection, schedule: Q01DX009 (ip), vehicle: saline with Tween-80): 94 % of control | T/C [7]: 99 % of control | T/C [8]: 101 % of control | T/C [9]: 95 % of control

CC(C)(C)OC(=O)O/N=C(\C#N)c1ccccc1
T/C [8]: 90 % of control | T/C [9]: 104 % of control | T/C [10]: 100 % of control and 103 % of control | T/C (dose: 200.0 mg/kg/injection, schedule: Q01DX009 (ip), vehicle: saline with Tween-80): 100 % of control

CN(C)c1ccc(C2(c3ccc(N(C)C)cc3)NNC(=O)c3ccccc32)cc1
T/C [2]: 93 % of control | T/C [4]: 90 % of control | T/C [6]: 86 % of control

CCOC/C=C\C(C)(C)C
T/C (dose: 50.0 mg/kg/injection, schedule: Q01DX001 (ip), vehicle: saline): 107 % of control | T/C [11]: 107 % of control | T/C [12]: 99 % of control

CCOC(=O)CNC(=O)Oc1ccc(Cl)cn1
T/C [13]: 102 % of control | T/C [14]: 97 % of control | T/C [15]: 102 % of control

COC1=CC(=O)c2c(O)cc(OC)cc2C1=O
T/C (dose: 1.25 mg/kg/injection, schedule: Q01DX009 (ip), vehicle: saline with Tween-80): 106 % of control and 116 % of control | T/C (dose: 2.5 mg/kg/injection, schedule: Q01DX009 (ip), vehicle: saline with Tween-80): 101 % of control and 108 % of control | T/C (dose: 5.0 mg/kg/injection, schedule: Q01DX009 (ip), vehicle: saline with Tween-80): 100 % of control and 114 % of control | T/C (dose: 10.0 mg/kg/injection, schedule: Q01DX009 (ip), vehicle: saline with Tween-80): 100 % of control and 92 % of control | T/C (dose: 20.0 mg/kg/injection, schedule: Q01DX009 (ip), vehicle: saline with Tween-80): 107 % of control and 92 % of control

O=C(CC(c1ccccc1)C(Sc1ccccc1)(Sc1ccccc1)Sc1ccccc1)c1ccccc1 (configuration not stated)
T/C (dose: 25.0 mg/kg/injection, schedule: Q01DX009 (ip), vehicle: Klucel (hydroxypropylcellulose) (HPC)): 100 % of control | T/C [13]: 100 % of control | T/C [14]: 100 % of control and 105 % of control

CN(C)C1=C(N(C)C)C1N(C)C
T/C (dose: 10.0 mg/kg/injection, schedule: Q04DX003 (ip), vehicle: saline): 100 % of control | T/C (dose: 20.0 mg/kg/injection, schedule: Q04DX003 (ip), vehicle: saline): 97 % of control | T/C (dose: 40.0 mg/kg/injection, schedule: Q04DX003 (ip), vehicle: saline): 101 % of control

CC1(C)N=C(N)N=C(N)N1c1ccc(CCCCc2ccc(Cl)c(S(=O)(=O)F)c2)c(Cl)c1
T/C (dose: 2.0 mg/kg/injection, schedule: Q01DX009 (ip), vehicle: saline with Tween-80): 154 % of control | T/C (dose: 8.0 mg/kg/injection, schedule: Q01DX009 (ip), vehicle: saline with Tween-80): 154 % of control | T/C (dose: 8.0 mg/kg/injection, schedule: Q01DX009 (ip), vehicle: saline): 172 % of control and 175 % of control | T/C (dose: 12.0 mg/kg/injection, schedule: Q01DX009 (ip), vehicle: saline): 180 % of control and 181 % of control | T/C (dose: 18.0 mg/kg/injection, schedule: Q01DX009 (ip), vehicle: saline): 163 % of control and 172 % of control and 180 % of control | T/C (dose: 27.0 mg/kg/injection, schedule: Q01DX009 (ip), vehicle: saline): 154 % of control and 172 % of control

CCCC(=O)NNCN1C(=O)c2ccccc2C1=O
T/C [1]: 89 % of control | T/C [3]: 86 % of control | T/C [5]: 93 % of control

O=C(OCCN1C(=O)C2C3C=CC(C3)C2C1=O)C1C2C=CC(C2)C1C(=O)OCCN1C(=O)C2C3C=CC(C3)C2C1=O (configuration not stated)
T/C (dose: 50.0 mg/kg/injection, schedule: Q01DX005 (ip), vehicle: saline + Tween-80 + alcohol): 100 % of control | T/C (dose: 100.0 mg/kg/injection, schedule: Q01DX005 (ip), vehicle: saline + Tween-80 + alcohol): 105 % of control | T/C (dose: 200.0 mg/kg/injection, schedule: Q01DX005 (ip), vehicle: saline + Tween-80 + alcohol): 105 % of control

C/C(=N\Nc1nncn2cccc12)c1ccccc1
T/C (dose: 100.0 mg/kg/injection, schedule: Q04DX002 (ip), vehicle: saline with Tween-80): 113 % of control | T/C (dose: 200.0 mg/kg/injection, schedule: Q04DX002 (ip), vehicle: saline with Tween-80): 120 % of control | T/C (dose: 400.0 mg/kg/injection, schedule: Q04DX002 (ip), vehicle: saline with Tween-80): 124 % of control

Cc1coc2c1CC1OC1(C)CCC1OC1(C)C2 (configuration not stated)
T/C (dose: 12.5 mg/kg/injection, schedule: Q01DX005 (ip), vehicle: Klucel + Tween-80): 96 % of control | T/C (dose: 25.0 mg/kg/injection, schedule: Q01DX005 (ip), vehicle: Klucel + Tween-80): 98 % of control | T/C (dose: 50.0 mg/kg/injection, schedule: Q01DX005 (ip), vehicle: Klucel + Tween-80): 99 % of control | T/C (dose: 100.0 mg/kg/injection, schedule: Q01DX005 (ip), vehicle: Klucel + Tween-80): 106 % of control

CN(C)c1ccc(/C=C/c2ccnc3c(O)cccc23)cc1
T/C [13]: 113 % of control | T/C [14]: 104 % of control | T/C [15]: 95 % of control
